Test results reported in ChEMBL document CHEMBL1201862, “PubChem BioAssay data set” (2004).
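Step 1: Grow cells in 96-well plates. Step 2: Expose to compound for 48 hours at 5 concentrations. Step 3: Interpolate endpoints linearly; if unreached, use highest concentration. The concentration for 50% growth inhibition is given as GI50.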 Activity calls are given as the source filed them. No stated cut-off is given here; in the data, active = GI50 up to about 1.1 µM and inactive = higher.

Key:
Assay in all cases: NCI tumour cell line growth inhibition, 48 h
[1] = system: OVCAR-8
[2] = system: COLO 205
[3] = system: SF-268
[4] = system: 786-0
[5] = system: SK-MEL-5
[6] = system: LOX IMVI
[7] = system: A549
[8] = system: KM12
[9] = system: NCI-H23
[10] = system: SNB-75
[11] = system: HT-29
[12] = system: NCI-H226
[13] = system: Hs-578T
[14] = system: SK-OV-3
[15] = system: UACC-257
[16] = system: A498
[17] = system: SK-MEL-28
[18] = system: TK-10
[19] = system: NCI-H460
[20] = system: RPMI-8226

| Compound | GI50 [1] | GI50 [2] | GI50 [3] | GI50 [4] | GI50 [5] | GI50 [6] | GI50 [7] | GI50 [8] | GI50 [9] | GI50 [10] | GI50 [11] | GI50 [12] | GI50 [13] | GI50 [14] | GI50 [15] | GI50 [16] | GI50 [17] | GI50 [18] | GI50 [19] | GI50 [20] |
| --- | --- | --- | --- | --- | --- | --- | --- | --- | --- | --- | --- | --- | --- | --- | --- | --- | --- | --- | --- | --- |
| O=S1(=O)N=C(NCc2c[nH]c3ccccc23)N(c2ccccc2)c2ccncc21 | 27.4 µM (inactive) | > 100 µM (inactive) | 27.5 µM (inactive) | 53.3 µM (inactive) | > 100 µM (inactive) | > 100 µM (inactive) | > 100 µM (inactive) | > 100 µM (inactive) | > 100 µM (inactive) | 16.8 µM (inactive) | > 100 µM (inactive) | 60.3 µM (inactive) | 31.7 µM (inactive) | 40.2 µM (inactive) | > 100 µM (inactive) | > 100 µM (inactive) | > 100 µM (inactive) | > 100 µM (inactive) | > 100 µM (inactive) |  |
| BrCC[N+]12CC[N+](CCBr)(CC1)C2 | > 100 µM (inactive) | > 100 µM (inactive) | > 100 µM (inactive) | > 100 µM (inactive) | > 100 µM (inactive) | > 100 µM (inactive) | > 100 µM (inactive) | > 100 µM (inactive) | > 100 µM (inactive) | > 100 µM (inactive) | > 100 µM (inactive) | > 100 µM (inactive) | > 100 µM (inactive) | > 100 µM (inactive) | > 100 µM (inactive) | > 100 µM (inactive) | > 100 µM (inactive) | > 100 µM (inactive) | > 100 µM (inactive) | > 100 µM (inactive) |
| O=c1c2nc(-c3ccccc3)oc2n(-c2ccccc2)c(=O)n1-c1ccccc1 | 23.3 µM (inactive) | > 46.5 µM (inactive) | 20.7 µM (inactive) | 17.5 µM (inactive) | 23.7 µM (inactive) | 38.5 µM (inactive) | 37.6 µM (inactive) | 33.2 µM (inactive) | 43.2 µM (inactive) | 18.1 µM (inactive) | > 46.5 µM (inactive) | 31.8 µM (inactive) | 21.9 µM (inactive) | 21.5 µM (inactive) | 36.3 µM (inactive) | 25.8 µM (inactive) | > 100 µM (inactive) | 15 µM (inactive) | 31.8 µM (inactive) | > 46.5 µM (inactive) |
| COc1ccc(C(=O)Cn2c(C(=O)/C=C/c3ccco3)nc3ccccc32)cc1 |  | 21.7 µM (inactive) | 24.5 µM (inactive) | 31 µM (inactive) | 26.7 µM (inactive) | 25.8 µM (inactive) | 42.8 µM (inactive) | 28.3 µM (inactive) | 42.4 µM (inactive) | 76.6 µM (inactive) | 36.6 µM (inactive) | 50.9 µM (inactive) | 25.3 µM (inactive) | 37.3 µM (inactive) | 27.4 µM (inactive) | 35.5 µM (inactive) | 42.2 µM (inactive) | 44.8 µM (inactive) | 23.5 µM (inactive) | 19.3 µM (inactive) |
| Cn1c(=O)n(CC(Br)CBr)c(=O)n(CC(Br)CBr)c1=O (configuration not stated) | 58.7 µM (inactive) | 21 µM (inactive) | 74.6 µM (inactive) | 38.1 µM (inactive) | 16.5 µM (inactive) | 18.4 µM (inactive) | 40.3 µM (inactive) | 48.9 µM (inactive) | 36 µM (inactive) | 58.5 µM (inactive) | 21.7 µM (inactive) | 20.2 µM (inactive) | > 100 µM (inactive) | > 100 µM (inactive) | 31.8 µM (inactive) | 77.4 µM (inactive) | 39.7 µM (inactive) | 55.5 µM (inactive) | 33.4 µM (inactive) | 25.1 µM (inactive) |
| C=CC(CBr)CCC(Br)C(C)(C)Br (configuration not stated) | > 10 µM (inactive) | > 10 µM (inactive) | > 10 µM (inactive) | > 10 µM (inactive) | > 10 µM (inactive) |  | > 10 µM (inactive) | > 10 µM (inactive) | > 10 µM (inactive) | > 10 µM (inactive) | > 10 µM (inactive) | > 10 µM (inactive) | > 10 µM (inactive) | > 10 µM (inactive) | > 10 µM (inactive) | > 10 µM (inactive) | > 10 µM (inactive) | > 10 µM (inactive) | > 10 µM (inactive) | > 10 µM (inactive) |
| CC(=S)NC=C(C(N)=O)C(N)=O | > 100 µM (inactive) | > 100 µM (inactive) | > 100 µM (inactive) | > 100 µM (inactive) | > 100 µM (inactive) | > 100 µM (inactive) | > 100 µM (inactive) | > 100 µM (inactive) | > 100 µM (inactive) | > 100 µM (inactive) | > 100 µM (inactive) | > 100 µM (inactive) | > 100 µM (inactive) | > 100 µM (inactive) | > 100 µM (inactive) | > 100 µM (inactive) | > 100 µM (inactive) |  |  | > 100 µM (inactive) |
| CCN(CC)c1ccc2cc(C(N)=O)c(=N)oc2c1 | 50 µM (inactive) | 35.2 µM (inactive) | 42.3 µM (inactive) | 30.1 µM (inactive) | 32.5 µM (inactive) | 29.5 µM (inactive) | 37.4 µM (inactive) | 31 µM (inactive) | 42.8 µM (inactive) | 26.5 µM (inactive) | 51.5 µM (inactive) | 19.7 µM (inactive) | 16.3 µM (inactive) | 36.6 µM (inactive) | > 100 µM (inactive) | 38.2 µM (inactive) | 31.3 µM (inactive) |  | 27 µM (inactive) | 96.6 µM (inactive) |
| Cc1c(/C=N/NC(=S)Nc2cccc(Cl)c2)c(=O)n(-c2ccccc2)n1C | 14.1 µM (inactive) | 96.6 µM (inactive) | 16.4 µM (inactive) | 18.3 µM (inactive) | 36.1 µM (inactive) | 46.8 µM (inactive) |  | 18.7 µM (inactive) | 28.7 µM (inactive) | 15 µM (inactive) | 27.9 µM (inactive) | 13.8 µM (inactive) | 13.9 µM (inactive) | 18.2 µM (inactive) | 32.4 µM (inactive) | 3.14 µM (inactive) | > 100 µM (inactive) | 16.6 µM (inactive) | 9.4 µM (inactive) | 40.9 µM (inactive) |
| COc1ccc2cc1Oc1ccc(cc1)C(Sc1ccccc1)CCOC(=O)CC2 (configuration not stated) | > 100 µM (inactive) | > 100 µM (inactive) | > 100 µM (inactive) | > 100 µM (inactive) | 63.1 µM (inactive) | > 100 µM (inactive) | > 100 µM (inactive) | > 100 µM (inactive) | > 100 µM (inactive) | > 100 µM (inactive) | > 100 µM (inactive) | > 100 µM (inactive) | > 100 µM (inactive) | > 100 µM (inactive) | > 100 µM (inactive) | > 100 µM (inactive) | > 100 µM (inactive) | > 100 µM (inactive) |  | 13.4 µM (inactive) |
| CCC1(CC)CC(=NNS(=O)(=O)c2ccc(C)cc2)C1 | > 100 µM (inactive) | > 100 µM (inactive) | > 100 µM (inactive) | > 100 µM (inactive) | > 100 µM (inactive) | > 100 µM (inactive) | > 100 µM (inactive) | > 100 µM (inactive) | > 100 µM (inactive) | > 100 µM (inactive) | > 100 µM (inactive) | > 100 µM (inactive) | > 100 µM (inactive) | > 100 µM (inactive) | > 100 µM (inactive) | > 100 µM (inactive) | > 100 µM (inactive) | > 100 µM (inactive) | > 100 µM (inactive) |  |
| O=C1C(F)=CC(COC(c2ccccc2)(c2ccccc2)c2ccccc2)OC1n1cc(F)c(=O)[nH]c1=O (configuration not stated) | 1.87 µM (inactive) |  | 2.9 µM (inactive) | 1.97 µM (inactive) | 1.35 µM (inactive) | 0.533 µM (active) | 2.18 µM (inactive) | 1.91 µM (inactive) | 1.77 µM (inactive) | 2.58 µM (inactive) | 0.412 µM (active) | 1.83 µM (inactive) | 4.24 µM (inactive) | 7.05 µM (inactive) | 1.96 µM (inactive) | 8.79 µM (inactive) | 1.62 µM (inactive) | 1.34 µM (inactive) | 2.62 µM (inactive) | 0.413 µM (active) |
| SC1=Nc2ccccc2-c2nc(-c3cccc(Cl)c3)cc(-c3ccccc3)c2C1 | 1.07 µM (active) | 7.82 µM (inactive) | 3.79 µM (inactive) | 0.971 µM (active) | 26.8 µM (inactive) | 3.15 µM (inactive) | 1.75 µM (inactive) | 4.53 µM (inactive) | 5.07 µM (inactive) | 1.83 µM (inactive) | 2.38 µM (inactive) | 3.68 µM (inactive) | 2.05 µM (inactive) | 2.11 µM (inactive) | 5.9 µM (inactive) | 2.02 µM (inactive) | 9.12 µM (inactive) |  | 1.3 µM (inactive) | 3.2 µM (inactive) |
| O=C(O)c1nn[nH]c1S | > 100 µM (inactive) | > 100 µM (inactive) | > 100 µM (inactive) | > 100 µM (inactive) | > 100 µM (inactive) | > 100 µM (inactive) | > 100 µM (inactive) | > 100 µM (inactive) | > 100 µM (inactive) | > 100 µM (inactive) | > 100 µM (inactive) | > 100 µM (inactive) | > 100 µM (inactive) | > 100 µM (inactive) | > 100 µM (inactive) | > 100 µM (inactive) | > 100 µM (inactive) |  | > 100 µM (inactive) | > 100 µM (inactive) |
| Cc1[nH]c(=O)[nH]c(=S)c1C(=O)NC(C)(CO)CO | > 100 µM (inactive) | > 100 µM (inactive) | > 100 µM (inactive) | > 100 µM (inactive) | > 100 µM (inactive) | > 100 µM (inactive) | > 100 µM (inactive) | > 100 µM (inactive) | > 100 µM (inactive) | > 100 µM (inactive) | > 100 µM (inactive) | > 100 µM (inactive) | > 100 µM (inactive) | > 100 µM (inactive) | > 100 µM (inactive) | > 100 µM (inactive) | > 100 µM (inactive) | > 100 µM (inactive) | > 100 µM (inactive) |  |
